We go through 4 compounds from the supplement of paper PMC10883282.

± gives the standard deviation of the averaged measurements.

The experiment relates to KHOS-NP. Put plainly: relative viability vs DMSO control (72 h) (fraction); higher = more viable cells. The essentials:
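ATPLite readings, expressed as percent growth and averaged over up to triplicate wells, provided relative viability. Before reading, sarcoma cell lines seeded in 384-well plates to reach 80–90% confluence received 2.5 µl of serially diluted compound after 24 h, from source plates of 10 mM to 0.0002 mM. Plates were held 72 h at 37 °C, 5% CO2, with 0.1% DMSO as vehicle and a 5 µM positive control. The data were rescaled to 1 for full and 0 for none.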

As for `COc1c(OCCCN2CCOCC2)ccc2c1N=C(NC(=O)c1cnc(N)nc1)N1CCN=C21` [Copanlisib], the relative viability was determined as 1.1 ± 0.042 (0.00017 µM); 1.1 ± 0.029 (0.00051 µM); 1.11 ± 0.015 (0.00152 µM); 1.088 ± 0.0075 (0.00457 µM); 1.075 ± 0.01 (0.01372 µM); 1.04 ± 0.029 (0.04115 µM). In addition, the relative viability is, setting by setting: (0.1235 µM) 1.003 ± 0.01; (0.3704 µM) 0.907 ± 0.021; (1.111 µM) 0.523 ± 0.014; (3.333 µM) 0.198 ± 0.0088; (10 µM) 0.146 ± 0.011.
Turning to `CN1CCN(c2ccc3nc(-c4c(N)c5c(F)cccc5[nH]c4=O)[nH]c3c2)CC1` [Dovitinib], the relative viability came to 1.08 ± 0.038 (0.00017 µM); 1.11 ± 0.018 (0.00051 µM); 1.107 ± 0.0074 (0.00152 µM); 1.104 ± 0.007 (0.00457 µM); 1.13 ± 0.025 (0.01372 µM); 1.11 ± 0.029 (0.04115 µM). Also, the relative viability turned out to be 1.1 ± 0.033 (0.1235 µM); 1.04 ± 0.07 (0.3704 µM); 1.03 ± 0.035 (1.111 µM); 0.677 ± 0.029 (3.333 µM); 0.248 ± 0.032 (10 µM).
On to `COCc1c(-c2cc3cc(C)cc(OC)c3s2)c2c(N)ncnn2c1CN1CCNC(=O)C1` [Rogaratinib], for which the relative viability runs as follows: (0.00017 µM) 1.09 ± 0.019; (0.00051 µM) 1.1 ± 0.014; (0.00152 µM) 1.08 ± 0.012; (0.00457 µM) 1.09 ± 0.0024; (0.01372 µM) 1.08 ± 0.032; (0.04115 µM) 1.06 ± 0.016. The compound also returned a relative viability (0.1235 µM) of 1.06 ± 0.018; a relative viability (0.3704 µM) of 1.06 ± 0.017; a relative viability (1.111 µM) of 1.09 ± 0.023; a relative viability (3.333 µM) of 1.04 ± 0.09; a relative viability (10 µM) of 0.877 ± 0.031.
`CN1CCC(COc2cnc(-c3cccc(Cn4nc(-c5cccc(C#N)c5)ccc4=O)c3)nc2)CC1` [Tepotinib]: the relative viability by setting is: (0.00017 µM) 1.09 ± 0.054; (0.00051 µM) 1.11 ± 0.024; (0.00152 µM) 1.11 ± 0.012; (0.00457 µM) 1.09 ± 0.013; (0.01372 µM) 1.08 ± 0.012; (0.04115 µM) 1.08 ± 0.026. Further, the relative viability is, setting by setting: (0.1235 µM) 1.07 ± 0.015; (0.3704 µM) 1.03 ± 0.023; (1.111 µM) 1.01 ± 0.023; (3.333 µM) 0.995 ± 0.021; (10 µM) 0.975 ± 0.014.
